Patent EP1420790B1, “USE OF BIBN4096 IN COMBINATION WITH OTHER ANTIMIGRAINE DRUGS FOR THE TREATMENT OF MIGRAINE” (Boehringer Ingelheim Pharma GmbH & Co.KG, priority 2001, dated 2003)

System: facial skin vasodilation induced by electrical trigeminal ganglion stimulation
Test: Measurement of facial skin blood flow (vasodilation induced by electrical trigeminal ganglion stimulation, laser Doppler flowmetry)
Assay type: in vivo, rat
Details: for % of trigeminus stimulation: anaesthetized male wistar rats
Protocol: Facial skin blood flow was measured by a modified method described by Escott et al. ([…]., Connor, H. E., Brain, S. D. (1995), Trigeminal ganglion stimulation increases facial skin blood flow in the rat a major role for calcitonin gene-related peptide, Brain Research, 669(1), 93-99). Fasted male wistar rats (strain CHbb:THOM, 280-320g) were anaesthetized with sodium pentobarbitone (initially with 60 mg/kg i.p. and maintained throughout the experiment with an intraperitoneal infusion of 30 mg/kg/h through a 23 G needle using a solution of 10 mg/ml). Both sides of the buccal area of the facial skin were shaved and depilated with a commercial depilatory […], Germany). The trachea was cannulated and the animals were artificially respired (80 strokes/min) with room air supplemented with oxygen. The body temperature was maintained at 37°C by an automated heating pad. The left femoral artery and the left femoral vein were cannulated for the continuous measurement of arterial blood pressure and intravenous administration of test compounds, respectively. […] Heart rate was derived from the blood pressure signal. Blood pressure and heart rate were continuously monitored throughout the course of the experiment to assess the level of anaesthesia and to monitor the cardiovascular effects of the drugs used in this study. The animals were placed in a stereotaxic frame and a longitudinal incision was made in the scalp. […] The position of the electrodes in the trigeminal ganglia were checked visually at the end of each experiment following removal of the brain. The trigeminal ganglion was stimulated at 10 Hz, 1 mA, 1 msec for 30 seconds using a stimulator supplied by Hugo Sachs Elektronik (79232 March-Hugstetten, Germany). Microvascular blood flow changes in the facial skin were measured by Laser Doppler flowmetry with a Periflux laser doppler system (PeriFLUX 4001, wave length […]; time constant 3 s, Perimed AB, Järfälla, S-17526, Sweden). Standard laser doppler probes (PROBE 408) were positioned on either side of the face approximately 0.5 cm below the centre of the eye, an area innervated by the maxillary branch (V2) of the trigeminal nerve. Blood flow changes were measured as flux in arbitrary units and expressed as area under the flux curve (mm^2) according to Escott et al. (1995). […] The first stimulation was used as a control for the subsequent stimulations.

With `NCCCC[C@H](NC(=O)[C@@H](Cc1cc(Br)c(O)c(Br)c1)NC(=O)N1CCC(N2Cc3ccccc3NC2=O)CC1)C(=O)N1CCN(c2ccncc2)CC1` [BIBN 4096 BS, 1-[N^2-[3,5-Dibromo-N-[[4-(3,4-dihydro-2(1H)-oxochinazolin-3-yl)-1-piperidinyl]-carbonyl]-D-tyrosyl]-L-lysyl]-4-(4-pyridinyl)-piperazine] the “% of trigeminus stimulation” value (BIBN 4096 BS 0.03 mg/kg intravenously 5 min prior to second stimulation, mean ± spread) was 60.3 ± 5.1% and the “% inhibition compared to control value” (BIBN 4096 BS 0.03 mg/kg intravenously 5 min prior to second stimulation, versus saline control) was 27.1%.

`CN1C[C@H](C(=O)N[C@]2(C)O[C@@]3(O)[C@@H]4CCCN4C(=O)[C@H](Cc4ccccc4)N3C2=O)C[C@@H]2c3cccc4[nH]cc(c34)C[C@H]21` [DHE, Dihydroergotamin] was tested, and the “% inhibition compared to control value” (rat, in vivo) was 27.0%.

In the case of `CNS(=O)(=O)Cc1ccc2[nH]cc(CCN(C)C)c2c1` [Sumatriptan, sumatriptan], the “% of trigeminus stimulation” value (Sumatriptan 1.0 mg/kg intravenously 5 min prior to second stimulation) is reported as 68.8 ± 6.8% and the “% inhibition compared to control value” (Sumatriptan 1.0 mg/kg intravenously 5 min prior to second stimulation, versus saline control) is reported as 16.8%.

For `CN(C)CCc1c[nH]c2ccc(C[C@H]3COC(=O)N3)cc12` [Zolmitriptan, zolmitriptan], the “% of trigeminus stimulation” value (Zolmitriptan 0.1 mg/kg intravenously 5 min prior to second stimulation) was 55.6 ± 4.8% and the “% inhibition compared to control value” (Zolmitriptan 0.1 mg/kg intravenously 5 min prior to second stimulation, versus saline control) was 32.8%.
